Measurements published in US11566004B2, “Process for the preparation of bromodomain inhibitor” (Celgene Quanticel Research, Inc., priority 2018, dated 2023).
Values after ≈ are worked out from the molar mass of the structure shown. Where two headings read alike, the source gives them in different places. Values belong to the molecule of their own block, whether it stands above or below them.

Experiments:
[1] = Solubility of bromination starting material, product and impurity in CH2Cl2 (with or without 10% H2SO4); assay type: physicochemical; conditions: for Solubility in CH2Cl2, 10% H2SO4, 10° C.: CH2Cl2 with 10% H2SO4, 10° C.; for Solubility in CH2Cl2, 10% H2SO4, 20° C.: CH2Cl2 with 10% H2SO4, 20° C.; for Solubility in CH2Cl2, 10% H2SO4, 30° C.: CH2Cl2 with 10% H2SO4, 30° C.
Description: This solubility difference is exploited by performing the reaction at a high concentration to drive Compound 5 out of solution once formed, thereby minimizing its ability to react further with the brominating reagent to form Compound 5-a diBr. The reaction is seeded with Compound 5 to initiate its crystallization.

[2] = Solubility of Compound 1 in process solvents (ICH class solvents, NMP, DMAc, formic acid); assay type: physicochemical; conditions: for solubility: organic solvent or mixture
Excerpt: The final isolation of Compound 1 requires a polish filtration. For this, the batch must be completely soluble.
The solubility curve of Compound 1 in formic acid-Water is quite steep (see FIG. 7), which enables a volumetrically efficient process.

[3] = test system: NCI-H460, human non-small cell lung cancer cells; conditions: see U.S. Pat. No. 9,034,900; cited from earlier work
[4] = test system: HL-60, human proleukemia cells; conditions: HL-60 cells; see U.S. Pat. No. 9,034,900; cited from earlier work
[5] = test system: Raji, human Burkitts lymphoma cells; conditions: see U.S. Pat. No. 9,034,900; cited from earlier work
bromodomain 4 (BRD4) = bromodomain 4 (BRD4) (Homo sapiens, UniProt O60885); conditions: preliminary in vitro studies; see U.S. Pat. No. 9,034,900; cited from earlier work
[6] = Solid phase and solution stability of boronic esters; assay type: physicochemical
Excerpt: The final bond forming step to Compound 1 is a Suzuki-Miyaura coupling between Compounds 2 and 3, as shown in Scheme 3 below (Norio, M. and Suzuki, A., Chem. Rev., 95(7), 2457-2483 (1995)). […] The pinacolatoboronate of the O-alkyl phenol, Compound 7, had acceptable solid phase stability and could be isolated via crystallization.
This was particularly problematic as the isolation process involved a solvent exchange from 2-MeTHF (2-methyl tetrahydrofuran) to iPrOAc (isopropyl acetate), which is not a fast unit operation on scale.

- Solubility in CH2Cl2, 10° C. [1]: 30 mg/mL (≈ 174 mM)
- Solubility in CH2Cl2, 20° C. [1]: 46 mg/mL (≈ 267 mM)
- Solubility in CH2Cl2, 30° C. [1]: 198 mg/mL (≈ 1150 mM)
- Solubility in CH2Cl2, 10% H2SO4, 10° C. [1]: 19 mg/mL (≈ 110 mM)
- Solubility in CH2Cl2, 10% H2SO4, 20° C. [1]: 51 mg/mL (≈ 296 mM)
- Solubility in CH2Cl2, 10% H2SO4, 30° C. [1]: 390 mg/mL (≈ 2260 mM)
Compound: CS(=O)(=O)c1ccc(O)cc1 [Compound 4, 4-(methylsulfonyl)phenol]

- Solubility in CH2Cl2, 10° C. [1]: 5 mg/mL (≈ 15.2 mM)
- Solubility in CH2Cl2, 20° C. [1]: 7 mg/mL (≈ 21.2 mM)
- Solubility in CH2Cl2, 30° C. [1]: 10 mg/mL (≈ 30.3 mM)
- Solubility in CH2Cl2, 10% H2SO4, 10° C. [1]: 5 mg/mL (≈ 15.2 mM)
- Solubility in CH2Cl2, 10% H2SO4, 20° C. [1]: 7 mg/mL (≈ 21.2 mM)
- Solubility in CH2Cl2, 10% H2SO4, 30° C. [1]: 14 mg/mL (≈ 42.4 mM)
Compound: CS(=O)(=O)c1cc(Br)c(O)c(Br)c1 [Compound 5-a diBr]

- Solubility in CH2Cl2, 10° C. [1]: 6 mg/mL (≈ 23.9 mM)
- Solubility in CH2Cl2, 20° C. [1]: 8 mg/mL (≈ 31.9 mM)
- Solubility in CH2Cl2, 30° C. [1]: 20 mg/mL (≈ 79.6 mM)
- Solubility in CH2Cl2, 10% H2SO4, 10° C. [1]: 5 mg/mL (≈ 19.9 mM)
- Solubility in CH2Cl2, 10% H2SO4, 20° C. [1]: 8 mg/mL (≈ 31.9 mM)
- Solubility in CH2Cl2, 10% H2SO4, 30° C. [1]: 11 mg/mL (≈ 43.8 mM)
Compound: CS(=O)(=O)c1ccc(O)c(Br)c1 [Compound 5]

Further lines, the molecule ahead of its results:

Compound: Cn1cc(-c2cc(S(C)(=O)=O)ccc2OCC2CC2)c2ccccc2c1=O [Compound 1, 4-[2-(cyclopropylmethoxy)-S-methylsulfonylphenyl]-2-methylisoquinolin-1-one]
- Solubility in almost all ICH Class 3 and common Class 2 (e.g. THF, MeCN) solvents ([2]; ICH Class 3 and common Class 2 solvents): low solubility
- solubility ([2]; N-methyl-2-pyrrolidone (NMP), read-out: Solubility in N-methyl-2-pyrrolidone (NMP)): > 50 mg/mL
- solubility ([2]; dimethylacetamide (DMAc), read-out: Solubility in dimethylacetamide (DMAc)): > 50 mg/mL
- solubility ([2]; formic acid, 20° C., read-out: Solubility in formic acid): > 250 mg/mL
- Solubility in a warm MeCN-water mix ([2]; warm MeCN-water mix): reasonable solubility
- other cancer-related inhibitory activity [3]: observed
- other cancer-related inhibitory activity [4]: observed
- other cancer-related inhibitory activity [5]: observed
- BRD4 inhibition (bromodomain 4 (BRD4)): observed

Compound: CC1(C)OB(c2cc(S(C)(=O)=O)ccc2OCC2CC2)OC1(C)C [Compound 7]
- Solution stability ([6]; in solution, decomposing primarily to proteodeborylated compound 10): poor
- Solid phase stability ([6]; solid phase): acceptable
